Molecules are shown by their SMILES.

The source of these data is patent US6365753B1, “Phthalimides and herbicide containing the same as active component” (Mitsubishi Chemical Corporation, priority 1998, dated 2002).
For Herbicidal Effect Echinochloa crus-galli in this document: ranges in brackets are in %.
For Herbicidal Effect Ipompoea-purpurea in this document: ranges in brackets are in %.

The first data set has as its system Scirpus juncoides. Nature of the data set: Submerged treatment test. Also: ranges in brackets are in %. Format: in vivo. The note with it: 10 g/a active ingredient, treated 5th day from sowing, examined on the 2.8th day from treatment, herbicidal index. The procedure:
(§1) Alluvial soil from a paddy field was put in a resin-made pot having an area of 200 cm^2. After fertilization, an adequate amount of water was added, and the soil was puddled and leveled. Seeds of Echinochloa crus-galli, Monochoria vaginalis, Rotala indica and Scirpus juncoides were sowed within a layer 0.5 cm below the surface of the soil. Water was poured onto the soil to keep a water depth of 3.5 cm.
(§2) On the 5th day from the sowing, the emulsifiable concentrate containing the compound of the invention as an active ingredient which was prepared in Formulation Example 3 was diluted with water. A prescribed amount of the diluted composition was dropped to the water so as to give 10 g of the active ingredient per are.
(§3) Cultivation was continued in a greenhouse, and the herbicidal effect was examined on the […] from the treatment. The results obtained are shown in Table 4 (the compound numbers in Table 4 correspond to those in Tables 1 and 2). The herbicidal effect was evaluated in terms of herbicidal index based on Y(%) obtained from equation:
(§4) y=[1−(Weight of weeds above the ground in a treated pot)/(Weight of weeds above the ground in a non-treated pot)]×100 (%)
Regarding `CCOC(=O)C(Cl)Cc1cc(N2C(=O)c3ccccc3C2=O)c(F)cc1Cl` (stereo not shown) [Compound 5, ethyl 2-chloro-3-(2-chloro-4-fluoro-5-phthalimidophenyl)propionate], the “Herbicidal Effect Scirpus juncoides” value is 4 (71-90).

Consider `CCCCOC(=O)C(Cl)Cc1cc(N2C(=O)c3ccccc3C2=O)c(F)cc1Cl` (stereo not shown) [Compound 8], for which the “Herbicidal Effect Scirpus juncoides” value is 5 (91-100).

In the next data set the test system is Monochoria vaginalis. Nature of the data set: Submerged treatment test. Also: ranges in brackets are in %. Format: in vivo. The note with it: 10 g/a active ingredient, treated 5th day from sowing, examined on the 2.8th day from treatment, herbicidal index. The procedure:
as §1, §2, §3, §4
With `CCOC(=O)C(Cl)Cc1cc(N2C(=O)c3ccccc3C2=O)c(F)cc1Cl` (stereo not shown) [Compound 5, ethyl 2-chloro-3-(2-chloro-4-fluoro-5-phthalimidophenyl)propionate], the “Herbicidal Effect Monochoria vaginalis” value was 5 (91-100).

For the compound `CCCCOC(=O)C(Cl)Cc1cc(N2C(=O)c3ccccc3C2=O)c(F)cc1Cl` (stereo not shown) [Compound 8], the “Herbicidal Effect Monochoria vaginalis” value was 5 (91-100).

In another data set the test system is Rotala indica. In words: Submerged treatment test. Also: ranges in brackets are in %. The class given is in vivo. The note with it: 10 g/a active ingredient, treated 5th day from sowing, examined on the 2.8th day from treatment, herbicidal index. The procedure:
as §1, §2, §3, §4
With `CCOC(=O)C(Cl)Cc1cc(N2C(=O)c3ccccc3C2=O)c(F)cc1Cl` (stereo not shown) [Compound 5, ethyl 2-chloro-3-(2-chloro-4-fluoro-5-phthalimidophenyl)propionate], the “Herbicidal Effect Rotala indica” value is on record as 5 (91-100).

Turning to `CCCCOC(=O)C(Cl)Cc1cc(N2C(=O)c3ccccc3C2=O)c(F)cc1Cl` (stereo not shown) [Compound 8], the “Herbicidal Effect Rotala indica” value was 5 (91-100).

A further data set has as its system Echinochloa crus-galli. In words: Submerged treatment test. Also: ranges in brackets are in %. The class given is in vivo. The note with it: 10 g/a active ingredient, treated 5th day from sowing, examined on the 2.8th day from treatment, herbicidal index. The procedure:
as §1, §2, §3, §4
In the case of `CCOC(=O)C(Cl)Cc1cc(N2C(=O)c3ccccc3C2=O)c(F)cc1Cl` (stereo not shown) [Compound 5, ethyl 2-chloro-3-(2-chloro-4-fluoro-5-phthalimidophenyl)propionate], the “Herbicidal Effect Echinochloa crus-galli” value is on record as 4 (71-90).

As for `CCCCOC(=O)C(Cl)Cc1cc(N2C(=O)c3ccccc3C2=O)c(F)cc1Cl` (stereo not shown) [Compound 8], the “Herbicidal Effect Echinochloa crus-galli” value is 5 (91-100).

The subject of another data set is Galium spurium. In words: Foliar treatment test (3) post emergence application. The note with it: 3.0 to 4.0-leaf stage, 12.5 ga.i./ha, 0.125% X-77, 21st day, index. The class given is in vivo. As to the method: (§5) Volcanic ash soil from a field was put in a resin-made pot having an area of 200 cm^2. After fertilization, the seeds of Galim spurium, Brassica juncea, and wheat were cast on the soil and covered with the soil uniformly. Cultivation was continued in a greenhouse until the plants reached to the 3.0 to 4.0-leaf stage.
(§6) The emulsifiable concentrate comprising compound No. 5 of the present invention, comparative compound (B) or comparative compound (C) as an active ingredient which was prepared in accordance with Formulation Example 3 was diluted with water containing 0.125% of a spreading agent X-77 (trade name, Valent USA Co.) so that a spray of 250 L/ha might give a prescribed amount of the active ingredient. The diluted composition was uniformly sprayed to the Galium spurium plant, the Brassica juncea plant, and the wheat plant by means of a small-sized power pressure spray.
(§7) Thereafter, cultivation was continued in the greenhouse, and the herbicidal effect and the injury to the crop were examined on the 21st day from the treatment. The herbicidal effect and the injury to the crop were evaluated on the same criteria as in Test Example 4.
In the case of `CCOC(=O)C(Cl)Cc1cc(N2C(=O)c3ccccc3C2=O)c(F)cc1Cl` (stereo not shown) [Compound 5, ethyl 2-chloro-3-(2-chloro-4-fluoro-5-phthalimidophenyl)propionate], the “Herbicidal Effect Galium spurium” value was 10 (100).

Still in this data set, the particulars now being: 3.0 to 4.0-leaf stage, 25.0 ga.i./ha, 0.125% X-77, 21st day, index.
Regarding `CCOC(=O)C(Cl)Cc1cc(N2C(=O)c3ccccc3C2=O)c(F)cc1Cl` (stereo not shown) [Compound 5, ethyl 2-chloro-3-(2-chloro-4-fluoro-5-phthalimidophenyl)propionate], the “Herbicidal Effect Galium spurium” value is reported as 10 (100).

Still in this data set, the particulars now being: 3.0 to 4.0-leaf stage, 50.0 ga.i./ha, 0.125% X-77, 21st day, index.
Take `CCOC(=O)C(Cl)Cc1cc(N2C(=O)c3ccccc3C2=O)c(F)cc1Cl` (stereo not shown) [Compound 5, ethyl 2-chloro-3-(2-chloro-4-fluoro-5-phthalimidophenyl)propionate]: the “Herbicidal Effect Galium spurium” value is listed as 10 (100).

For the next data set, the system named is Brassica juncea. The data set is described as above. Format: in vivo. The note with it: 3.0 to 4.0-leaf stage, 12.5 ga.i./ha, 0.125% X-77, 21st day, index. As to the method:
as §5, §6, §7
For the compound `CCOC(=O)C(Cl)Cc1cc(N2C(=O)c3ccccc3C2=O)c(F)cc1Cl` (stereo not shown) [Compound 5, ethyl 2-chloro-3-(2-chloro-4-fluoro-5-phthalimidophenyl)propionate], the “Herbicidal Effect Brassica juncea” value is 10 (100).

Still in this data set, the particulars now being: 3.0 to 4.0-leaf stage, 25.0 ga.i./ha, 0.125% X-77, 21st day, index.
On to `CCOC(=O)C(Cl)Cc1cc(N2C(=O)c3ccccc3C2=O)c(F)cc1Cl` (stereo not shown) [Compound 5, ethyl 2-chloro-3-(2-chloro-4-fluoro-5-phthalimidophenyl)propionate], for which the “Herbicidal Effect Brassica juncea” value was 10 (100).

The data set is the same for the next values; noted with them: 3.0 to 4.0-leaf stage, 50.0 ga.i./ha, 0.125% X-77, 21st day, index.
For `CCOC(=O)C(Cl)Cc1cc(N2C(=O)c3ccccc3C2=O)c(F)cc1Cl` (stereo not shown) [Compound 5, ethyl 2-chloro-3-(2-chloro-4-fluoro-5-phthalimidophenyl)propionate], the “Herbicidal Effect Brassica juncea” value is 10 (100).

The test system of the next data set is wheat. Nature of the data set: Foliar treatment test (3) post emergence application, crop injury. Format: in vivo. The note with it: 3.0 to 4.0-leaf stage, 12.5 ga.i./ha, 0.125% X-77, 21st day, index. The procedure: as §5, §6, §7
On to `CCOC(=O)C(Cl)Cc1cc(N2C(=O)c3ccccc3C2=O)c(F)cc1Cl` (stereo not shown) [Compound 5, ethyl 2-chloro-3-(2-chloro-4-fluoro-5-phthalimidophenyl)propionate], for which the “Crop Injury Wheat” value is reported as 0 (0).

The data set is the same for the next values; noted with them: 3.0 to 4.0-leaf stage, 25.0 ga.i./ha, 0.125% X-77, 21st day, index.
With `CCOC(=O)C(Cl)Cc1cc(N2C(=O)c3ccccc3C2=O)c(F)cc1Cl` (stereo not shown) [Compound 5, ethyl 2-chloro-3-(2-chloro-4-fluoro-5-phthalimidophenyl)propionate], the “Crop Injury Wheat” value is given as 0 (0).

Staying with this data set, now noted: 3.0 to 4.0-leaf stage, 50.0 ga.i./ha, 0.125% X-77, 21st day, index.
For the compound `CCOC(=O)C(Cl)Cc1cc(N2C(=O)c3ccccc3C2=O)c(F)cc1Cl` (stereo not shown) [Compound 5, ethyl 2-chloro-3-(2-chloro-4-fluoro-5-phthalimidophenyl)propionate], the “Crop Injury Wheat” value is 1 (1-9).

A further data set deals with Alopeculus aequalis. Nature of the data set: Foliar treatment test (1) post-emergence application. Also: ranges in brackets are in %. The class given is in vivo. The note with it: foliar treatment post-emergence at 1.0- to 2.0-leaf stage, 10 g/a active ingredient, 21st day from treatment; herbicidal index. As to the method:
(§8) Volcanic ash soil from a field was put in a resin-made pot having an area of 200 cm^2. After fertilization, the seeds of Brassica juncea, Ipomoea purpurea, Echinochloa crus-galli and Alopeculus aequalis were cast on the soil and uniformly covered with the soil.
(§9) Cultivation was continued in a greenhouse, and when the weeds reached the 1.0- to 2.0-leaf stage, a prescribed amount of the emulsifiable concentrate comprising the compound of the invention as an active ingredient which was prepared in Formulation Example 3 as diluted with water was sprayed uniformly to the weeds by means of a small-sized power pressure spray to give 10 g of the active ingredient per are.
(§10) Thereafter, cultivation was further continued in the greenhouse, and the herbicidal effect was examined on the 21st day from the treatment. The results obtained are shown in Table 6 (the compound numbers in Table 6 correspond to those in Tables 1 and 2). The herbicidal effect was evaluated based on the same criteria as in Test Example 1.
As to `CCOC(=O)C(Cl)Cc1cc(N2C(=O)c3ccccc3C2=O)c(F)cc1Cl` (stereo not shown) [Compound 5, ethyl 2-chloro-3-(2-chloro-4-fluoro-5-phthalimidophenyl)propionate], the “Herbicidal Effect Alopeculus sequalis” value is given as 1 (6-30).

Consider `CCCCOC(=O)C(Cl)Cc1cc(N2C(=O)c3ccccc3C2=O)c(F)cc1Cl` (stereo not shown) [Compound 8], for which the “Herbicidal Effect Alopeculus sequalis” value was 1 (6-30).

The subject of another data set is Ipomoea purpurea. Described as above. The class given is in vivo. The note with it: foliar treatment post-emergence at 1.0- to 2.0-leaf stage, 10 g/a active ingredient, 21st day from treatment; herbicidal index. The procedure:
as §8, §9, §10
In the case of `CCOC(=O)C(Cl)Cc1cc(N2C(=O)c3ccccc3C2=O)c(F)cc1Cl` (stereo not shown) [Compound 5, ethyl 2-chloro-3-(2-chloro-4-fluoro-5-phthalimidophenyl)propionate], the “Herbicidal Effect Ipompoea-purpurea” value is reported as 5 (91-100).

For the compound `CCCCOC(=O)C(Cl)Cc1cc(N2C(=O)c3ccccc3C2=O)c(F)cc1Cl` (stereo not shown) [Compound 8], the “Herbicidal Effect Ipompoea-purpurea” value is 5 (91-100).

In another data set the test system is Brassica juncea. Described as above. Format: in vivo. The note with it: foliar treatment post-emergence at 1.0- to 2.0-leaf stage, 10 g/a active ingredient, 21st day from treatment; herbicidal index. The procedure: as §8, §9, §10
Take `CCOC(=O)C(Cl)Cc1cc(N2C(=O)c3ccccc3C2=O)c(F)cc1Cl` (stereo not shown) [Compound 5, ethyl 2-chloro-3-(2-chloro-4-fluoro-5-phthalimidophenyl)propionate]: the “Herbicidal Effect Brassica juncea” value is on record as 5 (91-100).

For `CCCCOC(=O)C(Cl)Cc1cc(N2C(=O)c3ccccc3C2=O)c(F)cc1Cl` (stereo not shown) [Compound 8], the “Herbicidal Effect Brassica juncea” value is given as 5 (91-100).

For another data set, the system named is Echinochloa crus-galli. The description is as above. The class given is in vivo. The note with it: foliar treatment post-emergence at 1.0- to 2.0-leaf stage, 10 g/a active ingredient, 21st day from treatment; herbicidal index. The procedure:
as §8, §9, §10
With `CCOC(=O)C(Cl)Cc1cc(N2C(=O)c3ccccc3C2=O)c(F)cc1Cl` (stereo not shown) [Compound 5, ethyl 2-chloro-3-(2-chloro-4-fluoro-5-phthalimidophenyl)propionate], the “Herbicidal Effect Echinochloa crus-galli” value is 3 (51-70).

`CCCCOC(=O)C(Cl)Cc1cc(N2C(=O)c3ccccc3C2=O)c(F)cc1Cl` (stereo not shown) [Compound 8]: the “Herbicidal Effect Echinochloa crus-galli” value is listed as 1 (6-30).
